From patent US20220144853A1, “IMIDAZOLINE DERIVATIVES AS CXCR4 MODULATORS” (Université de Paris, priority 2019, published 2022)
Counter-ions that a name gives are not always drawn.

Tested on: IFN production by activated PBMCs
Experiment: IFN production by R848-activated PBMCs from healthy donors, twINNE reporter cell line
Assay type: cell-based, human
Conditions: Homo sapiens, PBMC, means of two results over 2 healthy donors, R848 5 μg/mL, IT1t: mean over all experiments, read-out: IC50 of anti-inflammatory activity (IFN production)
Procedure: 2) The blood from healthy donors was also obtained from “Etablissement Français du Sang” (convention #19/EFS/029), Paris, France.
In vitro experiments were performed using human peripheral blood mononuclear cells (PBMCs) isolated by density centrifugation from peripheral blood leukocyte separation medium, lymphoprep (Stemcell Technologies).
PBMCs were cultured in RPMI 1640 (Sigma-Aldrich, MO, USA) containing 10% heat-inactivated fetal bovine serum (Sigma-Aldrich, MO, USA) at 37° C./5% CO2.
2) The PBMCs used herein were prepared as described in part A “immune cells preparation”, section 2) above. PBMCs were seeded at 4.10^6/mL. […] Cells were then stimulated with the TLR7/8 agonist resiquimod—R848 (Sigma-Aldrich, MO, USA) at 5 μg/mL.
2) To quantify the secretion of functional IFN, a biological assay based on a stable cell line where luciferase reporter gene is controlled by five Interferon-Stimulated Response Elements (twINNE cell line) was used. It is important to note that the twINNE cell line is the same as the above mentioned STING-37 cell line but with constitutively expressed nanoluciferase. First, supernatants of R848-stimulated PBMCs (see part B, section 2) above) were harvested after 24 h of stimulation and frozen at −20° C. for storage. Then, supernatants were dispensed in culture wells of a 96-well plate containing 35.103 twINNE cells per well in Dulbecco's Modified Eagle's Medium supplemented with 10% Foetal Bovine Serum, 100 U/mL Penicillin and 100 μg/mL Streptomycin (1% Pen-Strep) and 1 mM glutamine (Sigma-Aldrich, MO, USA) at 37° C./5% […]. After 24 h of culture, luciferase activity was determined by adding 60 μL of Bright-Go reagents (Promega, Wisconsin, USA) to culture wells and measuring bioluminescence with EnSpire Multimode Plate Reader (PerkinElmer, Massachusetts, USA). When stated, for IC50 calculation, dose-response curves fitted using the nonlin fit (variable slope) analysis in GraphPad Prism software (GraphPad Software, California, USA).

Structure (SMILES) | IC50 [µM]
CC1(C)CN2C(CSC3=NCC4(CC4)N3)=CSC2=N1 [Example 24, 3-(((4,6-diazaspiro[2.4]hept-5-en-5-yl)thio)methyl)-6,6-dimethyl-5,6-dihydroimidazo[2,1-b]thiazole dihydrochloride] | 10 to 31
CC1(C)CN=C(SCC2=CSC3=N[C@H]4CCCC(C4)N23)N1 (racemic) [Example 23, cis-3-(((5,5-dimethyl-4,5-dihydro-1H-imidazol-2-yl)thio)methyl)-6,7,8,9-tetrahydro-5H-5,9-methanothiazolo[3,2-a][1,3]diazocine dihydrochloride] | ≥ 31
CC(C)[C@@H]1N=C(SCC2=CSC3=NC(C)(C)CN23)N[C@H]1C(C)C [Example 58, 3-((((4S,5S)-4,5-diisopropyl-4,5-dihydro-1H-imidazol-2-yl)thio)methyl)-6,6-dimethyl-5,6-dihydroimidazo[2,1-b]thiazole dihydrochloride] | ≥ 31

Tested on: not given
Experiment: not given
Conditions: not given

Structure (SMILES) | melting point
CC1(C)CN=C(SCC2=CSC3=NCCCN23)N1 (as salt: hydrochloride) [Example 14, 3-(((5,5-dimethyl-4,5-dihydro-1H-imidazol-2-yl)thio)methyl)-6,7-dihydro-5H-thiazolo[3,2-a]pyrimidine dihydrochloride] | 242 to 245 °C
CC1(C)CN=C(SCC2=CSC3=NC(C)(C)CN23)NC1 (as salt: hydrochloride) [Example 28, 3-(((5,5-dimethyl-1,4,5,6-tetrahydropyrimidin-2-yl)thio)methyl)-6,6-dimethyl-5,6-dihydroimidazo[2,1-b]thiazole dihydrochloride] | > 250 °C
C1=C(CSC2=N[C@@H]3CCCC[C@H]3N2)N2CCCN=C2S1 (as salt: hydrochloride) [Example 45, 3-((((3aR,7aR)-3a,4,5,6,7,7a-hexahydro-1H-benzo[d]imidazol-2-yl)thio)methyl)-6,7-dihydro-5H-thiazolo[3,2-a]pyrimidine dihydrochloride] | > 250 °C
CC1(C)CN=C(SCCc2cccc3ncccc23)N1 (as salt: hydrochloride) [Example 41, 5-(2-((5,5-dimethyl-4,5-dihydro-1H-imidazol-2-yl)thio)ethyl)quinoline dihydrochloride] | 240 to 245 °C
CC1(C)CN2C(=N1)SCC2SC1=NCC(C)(C)N1 (stereo not drawn) (as salt: hydrochloride) [Example 70, 3-((5,5-dimethyl-4,5-dihydro-1H-imidazol-2-yl)thio)-6,6-dimethyl-2,3,5,6-tetrahydroimidazo[2,1-b]thiazole dihydrochloride] | 240 to 243 °C
CC1(C)CN=C(SCC2=CSC3=NC4(CCCCC4)CN23)N1 (as salt: hydrochloride) [Example 42, 3′-(((5,5-dimethyl-4,5-dihydro-1H-imidazol-2-yl)thio)methyl)-5′H-spiro[cyclohexane-1,6′-imidazo[2,1-b]thiazole] dihydrochloride] | 190 to 198 °C
CC1(C)CN2C(CSC3=NCC(Cc4ccccc4)N3)=CSC2=N1 (stereo not drawn) (as salt: hydrochloride) [Example 17, 3-(((5-benzyl-4,5-dihydro-1H-imidazol-2-yl)thio)methyl)-6,6-dimethyl-5,6-dihydroimidazo[2,1-b]thiazole dihydrochloride] | 83 to 103 °C
CCCCC1CN=C(SCC2=CSC3=N[C@H]4CCCCC4N23)N1 (mixture of isomers) (as salt: hydrochloride) [Example 54, trans-3-(((5-butyl-4,5-dihydro-1H-imidazol-2-yl)thio)methyl)-4a,5,6,7,8,8a-hexahydrobenzo[4,5]imidazo[2,1-b]thiazole dihydrochloride] | 226 to 230 °C
CN1CCCN=C1SCC1=CSC2=NC(C)(C)CN12 (as salt: hydrochloride) [Example 57, 6,6-dimethyl-3-(((1-methyl-1,4,5,6-tetrahydropyrimidin-2-yl)thio)methyl)-5,6-dihydroimidazo[2,1-b]thiazole dihydrochloride] | 245 to 249 °C
CC1(C)CN2C(CSC3=N[C@@H]4CCC[C@@H](C4)N3)=CSC2=N1 (as salt: hydrochloride) [Example 22, 3-((((1R,5S)-2,4-diazabicyclo[3.3.1]non-2-en-3-yl)thio)methyl)-6,6-dimethyl-5,6-dihydroimidazo[2,1-b]thiazole dihydrochloride] | > 250 °C
CCCCC1CN=C(SCC2=CSC3=NC(Cc4ccccc4)CN23)N1 (stereo not drawn) (as salt: hydrochloride) [Example 51, 6-benzyl-3-(((5-butyl-4,5-dihydro-1H-imidazol-2-yl)thio)methyl)-5,6-dihydroinidazo[2,1-b]thiazole dihydrochloride] | 150 to 154 °C
CN1CCN=C1SCC1=CSC2=NC3CCCCC3N12 (racemic) (as salt: hydrochloride) [Example 63, trans-3-(((1-methyl-4,5-dihydro-1H-imidazol-2-yl)thio)methyl)-4a,5,6,7,8,8a-hexahydrobenzo[4,5]imidazo[2,1-b]thiazole dihydrochloride] | 204 to 207 °C
CC1(C)CN2C(=N1)SC(I)=C2CSC1=NCC(C)(C)N1 (as salt: hydrochloride) [Example 66, 3-(((5,5-dimethyl-4,5-dihydro-1H-imidazol-2-yl)thio)methyl)-2-iodo-6,6-dimethyl-5,6-dihydroimidazo[2,1-b]thiazole dihydrochloride] | 169 to 180 °C (dec.)
CC1(C)CN2C(CSC3=NCC(C)(C)N3)=CSC2=N1 (as salt: hydrochloride) [Example 2, 3-(((5,5-dimethyl-4,5-dihydro-1H-imidazol-2-yl)thio)methyl)-6,6-dimethyl-5,6-dihydroimidazo[2,1-b]thiazole dihydrochloride] | > 250 °C
CN1CCN=C1SCC1=CSC2=NC(C)(C)CN12 (as salt: hydrochloride) [Example 11, 6,6-dimethyl-3-(((1-methyl-4,5-dihydro-1H-imidazol-2-yl)thio)methyl)-5,6-dihydroimidazo[2,1-b]thiazole dihydrochloride] | 128 to 132 °C
CC1(C)CN2C(CSC3=NCC(c4ccccc4)N3)=CSC2=N1 (stereo not drawn) (as salt: hydrochloride) [Example 53, 6,6-dimethyl-3-(((4-phenyl-4,5-dihydro-1H-imidazol-2-yl)thio)methyl)-5,6-dihydroimidazo[2,1-b]thiazole dihydrochloride] | 110 to 120 °C
C1=C(CSC2=NCCN2)N2C(=N[C@H]3CCCCC32)S1 (mixture of isomers) (as salt: hydrochloride) [Example 59, trans-3-(((4,5-dihydro-1H-imidazol-2-yl)thio)methyl)-4a,5,6,7,8,8a-hexahydrobenzo[4,5]imidazo[2,1-b]thiazole dihydrochloride] | 115 to 120 °C
CC1(C)CN2C(CSC3=N[C@H]4CCCC[C@@H]4N3)=CSC2=N1 (as salt: hydrochloride) [Example 4, 3-((((3aS,7aS)-3a,4,5,6,7,7a-hexahydro-1H-benzo[d]imidazol-2-yl)thio)methyl)-6,6-dimethyl-5,6-dihydroimidazo[2,1-b]thiazole dihydrochloride] | 167 to 175 °C
CC1(C)CN=C(SCC2=CSC3=NC(C)(C)C(C)(C)N23)N1 (as salt: hydrochloride) [Example 20, 3-(((5,5-dimethyl-4,5-dihydro-1H-imidazol-2-yl)thio)methyl)-5,5,6,6-tetramethyl-5,6-dihydroimidazo[2,1-b]thiazole dihydrochloride] | 140 to 160 °C
CC1(C)CN2C(CSC3=N[C@@H]4CCCC[C@@H]4N3)=CSC2=N1 (as salt: hydrochloride) [Example 5, 3-((((3R,7aS)-3a,4,5,6,7,7a-hexahydro-1H-benzo[d]imidazol-2-yl)thio)methyl)-6,6-dimethyl-5,6-dihydroimidazo[2,1-b]thiazole dihydrochloride] | > 250 °C
C1=C(CSC2=N[C@H]3COC[C@H]3N2)N2C(=N[C@@H]3COC[C@@H]32)S1 (mixture of isomers) (as salt: hydrochloride) [Example 36, mixture of (4aS,7aR)-3-((((3aS,6aR)-3a,4,6,6a-tetrahydro-1H-furo[3,4-d]imidazol-2-yl)thio)methyl)-4a,5,7,7a-tetrahydrofuro[3′,4′:4,5]imidazo[2,1-b]thiazole dihydrochloride and (4aR,7aS)-3-((((3aR,6aS)-3a,4,6,6a-tetrahydro-1H-furo[3,4-d]imidazol-2-yl)thio)methyl)-4a,5,7,7a-tetrahydrofuro[3′,4′: 4,5]imidazo[2,1-b]thiazole dihydrochloride] | > 250 °C
